ChEMBL document CHEMBL5096158, “HIV latency reversal agents: A potential path for functional cure?” (Eur J Med Chem, 2021)

Legend:
[1] = tested on: Human immunodeficiency virus 1; test: Reversal of HIV-1 latency infected in GFP-fused human J-Lat C11 cells assessed as increase in GFP expression at 10 uM incubated for 72 hrs by flow cytometry; format: functional
[2] = tested on: Human immunodeficiency virus 1; test: Reversal of HIV-1 latency infected in GFP-fused human Jurkat latent cells assessed as increase in GFP expressing cells at 4 uM incubated for 48 hrs by flow cytometry analysis; format: functional
[3] = tested on: Human immunodeficiency virus 1; test: Reversal of HIV-1 latency infected in GFP-fused human J-Lat C11 cells assessed as increase in GFP expression at 2 uM incubated for 3 hrs by flow cytometry; format: functional
[4] = molecular target: N-lysine methyltransferase SMYD2 (Homo sapiens, UniProt Q9NRG4); test: Inhibition of SMYD2 (unknown origin)
N-lysine methyltransferase SMYD2, sequence (Q9NRG4 whole entry): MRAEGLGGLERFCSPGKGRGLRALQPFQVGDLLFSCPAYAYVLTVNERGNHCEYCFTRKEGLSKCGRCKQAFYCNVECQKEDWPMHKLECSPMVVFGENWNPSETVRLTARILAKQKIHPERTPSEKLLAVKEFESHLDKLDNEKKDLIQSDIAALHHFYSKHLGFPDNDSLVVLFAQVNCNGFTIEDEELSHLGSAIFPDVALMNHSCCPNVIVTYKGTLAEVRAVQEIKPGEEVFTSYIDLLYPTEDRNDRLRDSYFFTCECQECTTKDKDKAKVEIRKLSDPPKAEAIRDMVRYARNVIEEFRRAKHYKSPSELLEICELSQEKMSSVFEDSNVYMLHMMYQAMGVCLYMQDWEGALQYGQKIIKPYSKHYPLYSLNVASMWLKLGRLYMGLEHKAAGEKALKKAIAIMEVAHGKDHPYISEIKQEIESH

[5] = tested on: Human immunodeficiency virus 1; test: Reactivation of HIV-1 latency infected in human CD4+ve Th cells assessed as fold increase in GFP expression at 500 nM incubated for 18 hrs by flow cytometry; format: functional
[6] = tested on: Human immunodeficiency virus 1; test: Reactivation of HIV-1 latency infected in human J-Lat GFP Clone A72 cells assessed as increase in GFP expression at 5 to 10 mM incubated for 18 hrs by flow cytometry; format: functional; settings: dose 5-10 mM
Histone deacetylase 4 = Histone deacetylase 4 (Homo sapiens, UniProt P56524); test: Inhibition of recombinant human HDAC4 expressed in baculovirus expression system using KI-104 as substrate incubated for 3 hrs by fluorescence-based assay
Histone deacetylase 4, sequence (P56524 whole entry): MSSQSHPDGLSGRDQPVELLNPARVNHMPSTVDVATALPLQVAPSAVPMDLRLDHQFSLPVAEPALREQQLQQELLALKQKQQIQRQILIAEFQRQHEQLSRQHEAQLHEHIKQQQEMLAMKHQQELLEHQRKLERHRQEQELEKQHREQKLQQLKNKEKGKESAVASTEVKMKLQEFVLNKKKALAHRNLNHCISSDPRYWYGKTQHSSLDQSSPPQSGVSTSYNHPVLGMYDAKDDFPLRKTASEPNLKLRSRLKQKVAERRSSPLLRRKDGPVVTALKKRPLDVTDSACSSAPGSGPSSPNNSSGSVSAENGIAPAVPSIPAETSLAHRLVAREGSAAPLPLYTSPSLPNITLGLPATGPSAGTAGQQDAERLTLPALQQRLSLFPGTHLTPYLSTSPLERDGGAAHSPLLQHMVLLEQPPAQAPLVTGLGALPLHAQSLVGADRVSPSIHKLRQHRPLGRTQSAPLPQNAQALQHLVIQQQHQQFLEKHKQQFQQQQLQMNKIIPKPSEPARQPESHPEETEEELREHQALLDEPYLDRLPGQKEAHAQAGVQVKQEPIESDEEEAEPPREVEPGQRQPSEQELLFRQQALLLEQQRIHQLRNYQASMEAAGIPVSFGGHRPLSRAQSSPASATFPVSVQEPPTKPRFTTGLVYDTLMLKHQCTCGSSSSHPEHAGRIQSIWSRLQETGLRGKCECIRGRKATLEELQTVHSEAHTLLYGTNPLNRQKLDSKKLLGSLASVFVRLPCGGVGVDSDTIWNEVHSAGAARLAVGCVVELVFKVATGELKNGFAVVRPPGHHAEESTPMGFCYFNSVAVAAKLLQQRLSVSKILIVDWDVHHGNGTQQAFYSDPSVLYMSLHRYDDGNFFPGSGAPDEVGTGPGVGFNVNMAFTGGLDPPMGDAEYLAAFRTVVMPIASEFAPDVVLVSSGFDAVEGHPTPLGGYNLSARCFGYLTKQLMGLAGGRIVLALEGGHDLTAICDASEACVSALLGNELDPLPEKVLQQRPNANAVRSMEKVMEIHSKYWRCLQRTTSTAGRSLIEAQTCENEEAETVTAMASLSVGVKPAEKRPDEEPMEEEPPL

[7] = molecular target: T1, Protein deacetylase HDAC6 (Homo sapiens, UniProt Q9UBN7); test: Inhibition of recombinant human HDAC6 expressed in baculovirus expression system using KI-104 as substrate incubated for 3 hrs by fluorescence-based assay
T1 sequence (Q9UBN7 whole entry): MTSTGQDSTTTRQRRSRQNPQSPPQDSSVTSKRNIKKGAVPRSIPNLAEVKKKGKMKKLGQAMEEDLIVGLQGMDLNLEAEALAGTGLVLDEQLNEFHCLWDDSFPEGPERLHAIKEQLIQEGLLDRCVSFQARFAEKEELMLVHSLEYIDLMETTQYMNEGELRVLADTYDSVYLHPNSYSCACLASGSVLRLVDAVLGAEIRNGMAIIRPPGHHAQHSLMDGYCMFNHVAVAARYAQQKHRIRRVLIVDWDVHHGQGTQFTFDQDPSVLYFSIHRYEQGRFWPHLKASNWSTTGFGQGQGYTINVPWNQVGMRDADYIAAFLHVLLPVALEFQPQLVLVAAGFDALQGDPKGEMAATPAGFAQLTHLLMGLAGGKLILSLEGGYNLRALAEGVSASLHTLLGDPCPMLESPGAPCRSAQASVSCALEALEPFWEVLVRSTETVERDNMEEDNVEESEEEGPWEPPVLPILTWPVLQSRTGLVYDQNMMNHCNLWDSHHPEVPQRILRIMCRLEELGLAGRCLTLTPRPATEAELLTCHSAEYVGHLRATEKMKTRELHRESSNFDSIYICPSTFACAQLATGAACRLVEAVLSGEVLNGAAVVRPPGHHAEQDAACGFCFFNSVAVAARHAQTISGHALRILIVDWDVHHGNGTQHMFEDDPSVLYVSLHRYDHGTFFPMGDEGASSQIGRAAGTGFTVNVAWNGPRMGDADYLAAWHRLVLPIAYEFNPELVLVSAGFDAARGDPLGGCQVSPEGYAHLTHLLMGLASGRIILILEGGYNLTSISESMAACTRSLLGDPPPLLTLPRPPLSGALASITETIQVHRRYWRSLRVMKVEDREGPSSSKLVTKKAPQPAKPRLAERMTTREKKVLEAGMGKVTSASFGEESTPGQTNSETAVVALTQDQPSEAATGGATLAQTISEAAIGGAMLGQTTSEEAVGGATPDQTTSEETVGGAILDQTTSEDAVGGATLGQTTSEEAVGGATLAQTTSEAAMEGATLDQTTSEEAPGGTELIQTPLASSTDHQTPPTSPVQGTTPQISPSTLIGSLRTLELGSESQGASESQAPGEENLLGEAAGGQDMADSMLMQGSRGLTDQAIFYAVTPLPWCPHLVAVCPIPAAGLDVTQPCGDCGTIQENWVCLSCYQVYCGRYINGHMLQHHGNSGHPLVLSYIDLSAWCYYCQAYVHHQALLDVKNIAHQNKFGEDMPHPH

[8] = tested on: Human immunodeficiency virus 1; test: Reactivation of HIV-1 latency in human U1 cells assessed as fold increase in HIV transcription by measuring GFP expression at 2 uM incubated for 24 hrs in presence of PEP005 by flow cytometry; format: functional
[9] = tested on: Human immunodeficiency virus 1; test: Reversal of HIV-1 latency infected in GFP-fused human J-Lat C11 cells assessed as increase in GFP expression at 100 uM incubated for 72 hrs by flow cytometry; format: functional
[10] = tested on: Human immunodeficiency virus 1; test: Reactivation of HIV-1 latency infected in GFP-fused human J-Lat 10.6 cells assessed as increase in GFP expression incubated for 48 hrs by flow cytometry; format: functional, organism-based; settings: Human immunodeficiency virus 1, J-Lat 10.6, 48 h
[11] = Inhibition of HIV-1 latency infected in human ACH-2 cells assessed as fold increase in HIV production by measuring p24 level incubated for 48 hrs in presence of BIX01294 by ELISA; format: functional, Human immunodeficiency virus 1, ACH-2 cell line
[12] = tested on: Human immunodeficiency virus 1; test: Reversal of HIV-1 latency infected in human U1 cells assessed as fold increase in p24 expression level at 31.1 nM incubated for 48 hrs by ELISA; format: functional
[13] = Inhibition of HIV-1 latency in human CD4+ve Th cells infected NL4.3-Luc virus assessed as p24 expression level incubated for 48 hrs by v450 dye based flow cytometry; format: functional, cell-based; settings: Human immunodeficiency virus 1, CD4+ve Th
[14] = tested on: Human immunodeficiency virus 1; test: Reversal of HIV-1 latency infected in human ACH-2 cells assessed as fold increase in p24 expression level at 15.6 nM incubated for 48 hrs by ELISA; format: functional, ACH-2 cell line
[15] = tested on: Human immunodeficiency virus 1; test: Reversal of HIV-1 latency infected in human ACH-2 cells assessed as fold increase in p24 expression level at 31.1 nM incubated for 48 hrs by ELISA; format: functional, ACH-2 cell line
[16] = tested on: Human immunodeficiency virus 1; test: Reversal of HIV-1 latency infected in human U1 cells assessed as fold increase in p24 expression level at 15.6 nM incubated for 48 hrs by ELISA; format: functional
[17] = tested on: Human immunodeficiency virus 1; test: Reversal of HIV-1 latency infected in human J-Lat Tat-GFP Clone A7 cells assessed as increase in GFP expressing cells at 200 nM incubated for 72 hrs by flow cytometry analysis relative to control; format: functional
[18] = tested on: Human immunodeficiency virus 1; test: Reversal of HIV-1 latency infected in human J-Lat Tat-GFP Clone A7 cells assessed as increase in GFP expressing cells at 100 nM incubated for 72 hrs by flow cytometry analysis relative to control; format: functional

Work on `COc1ccccc1S(=O)(=O)Nc1ccc2c(c1)CN(C)C(=O)N2` yielded an Activity [1] of 89%.

Work on `CC(=O)SCCCCC[C@H](NC(=O)C1CCC(=O)N1)C(=O)Nc1ccccc1` (some centres undefined) yielded an Activity [2] of 52%.

In the case of `O=C(CCCCCCC(=O)Nc1ccccc1)NO` [VORINOSTAT], the Activity [3] is reported as 3.2%.

With `N#Cc1cc(C(=O)NCCCN2CCCC2)cc(-c2ccccc2N2CCN(CCc3c[nH]c4ccccc34)CC2)c1` the IC50 [4] was 0.027 µM, the “fold change (FC)” value [5] was 4 and the Activity [6] was 30%.

For `O=C(/C=C/c1cccc(S(=O)(=O)Nc2ccccc2)c1)NO` [BELINOSTAT], the EC50 (Histone deacetylase 4) was 0.115 µM and the EC50 [7] was 0.082 µM.

With `Cc1sc2c(c1C)C(c1ccc(Cl)cc1)=N[C@@H](CC(=O)OC(C)(C)C)c1nnc(C)n1-2` the “fold change (FC)” value [8] was 250.

With `COc1cc(OC)c2c(=O)[nH]c(-c3cc(C)c(OCCO)c(C)c3)nc2c1` [APABETALONE] the Activity [9] was 75%.

`CC(C)=CC(=O)O[C@H]1C(C)=C[C@]23C(=O)[C@H](C=C(CO)[C@@H](O)[C@]12O)C1C(C[C@H]3C)C1(C)C` (some centres undefined) gave an EC50 [10] of 0.058 µM.

In the case of `Nc1ncn([C@@H]2O[C@H](CO)[C@@H](O)[C@H]2O)c(=O)n1` [AZACITIDINE], the “fold change (FC)” value [11] is reported as 47.

With `Cc1[nH]c2ccccc2c1CCNCc1ccc(/C=C/C(=O)NO)cc1` [PANOBINOSTAT] the “fold change (FC)” value [12] was 19.9, the EC50 [13] was 0.01 µM and the “fold change (FC)” value [14] was 27.7. The “fold change (FC)” value [15] was 51.8 and the “fold change (FC)” value [16] was 12.8.

`CN(C)c1ccc(C(=O)NCCCCCCC(=O)NO)cc1` gave an Activity [17] of 25.2%.

`CC(/C=C/C(=O)NO)=C\[C@@H](C)C(=O)c1ccc(N(C)C)cc1` [TRICHOSTATIN] gave an Activity [18] of 21.3%.
